From US8399495B2, “Talarazole metabolites” (Stiefel Laboratories, Inc., priority 2006, dated 2013)

Key:
[1] = test system: vaginal keratinization induced by estrogenic treatment; experiment: Inhibition of vaginal keratinization induced by estrogenic treatment in ovariectomized rats; type: in vivo, rat; conditions: ovariectomized rats with estrogenic treatment; M4 oral during 3 days
Text: Effects on Epithelial Differentiation in Rat Vagina: Inhibition of Vaginal Keratinization Induced by Estrogenic Treatment in Ovariectomized Rats by Oral Administration of Talarozole Metabolite M4
This animal model is based on the observation that retinoic acid (RA) suppresses the keratinization process in the stratified squamous epithelium of the vagina induced by estrogenic treatment in ovariectomized rats (Sietsema & DeLuca, 1982; Geiger & Weiser, 1989).

[2] = Metabolite radioprofiling of plasma, urine and feces, rat; type: in vivo; conditions: for Feces % Dose as the component / Plasma 0-24 h AUC (% Sample) / Plasma 0-24 h AUC of the radioactive component / Urine % Dose as the component: rat (5 mg/kg) oral 14C-talarozole; for Urine % Dose as the component: urine 0-48 h; for Plasma 0-24 h AUC, total radioactivity: rat (5 mg/kg)
Description: (§1) Male and female CD-1 mice (19-29 g, n=3/sex/timepoint for blood sampling, n=3/sex for mass balance), Sprague Dawley rats (0.205-0.237 kg, n=3/sex/timepoint for blood sampling, n=3/sex for mass balance) and beagle dogs (7-12 kg, n=3) were given a single oral dose of ^14C-labeled talarozole in 20% hydroxyl propyl B-cyclodextrin at 5 mg/kg. Healthy human male volunteers (76.6-107.9 kg, n=5) were dosed with a single oral dose of 4 mg ^14C-labeled rambazole in ethanol. Blood samples were collected at selected timepoints after dosing and plasma was prepared. Urine and feces were collected for 2, 7 and 8 days. For the human study, up to 288 hours post-dose and semen samples were obtained 2 and 4 hours post-dose. Radioactivity in various matrices were measured by liquid scintillation counting (LSC). Select plasma, urine and fecal samples were subjected to metabolite radioprofiling and characterization, and in the human study, semen samples. Metabolite radioprofiling was accomplished using HPLC with fraction collection followed by solid scintillation counting (Packard TopCount—see representative HPLC run data below). Radioactivity peaks were integrated and the percent distribution of individual metabolites in each sample was determined. Metabolite characterization and identification were accomplished by LC/MS (Finnigan MAT LCQ in positive or negative ESI mode) in conjunction with an appropriate radioactive monitor (RAM). For all species, plasma, urine and fecal samples were pooled across animals and analyzed. Plasma was analyzed at several time-points out to 24 hours. Urine was analyzed over one time-interval (0-24 hours for mouse, 0-48 hours for rat, 0-72 hours for dog, and for in the human study, 0-12, 12-24, 24-48, 0-48 hours. Feces was analyzed over 2-3 time intervals (0-24 and 24-48 hours for mouse and rat; 0-24, 24-48, and 48-72 hours for male dogs; and 24-48, 48-72, and 72-96 hours for female dogs). In the human study, feces were analyzed for 0-48, 48-96, 96-144, 144-192, 192-288, 0-144, 144-288 and 0-288 hours. PK parameters for ^14C-labeled talarozole radioactivity was determined from the mean (mouse and rat) or individual (dog and human) plasma concentration versus time data. PK parameter values were determined by non-compartmental methods using WinNonlin™. • HPLC data for separations described in Example 1: • LC system: Waters 2695 Separations Module • Analytic column: C18 column, 4.6×150 mm, 3 μm • Flow rate: 1.0 mL/min • Mobile phase A: 2% HCOOH in H2O (pH 3.2) • Mobile phase B: CH3CN • Gradient: […]

[3] = Pharmacokinetics of radioactivity in plasma after oral 14C-labeled talarozole, dog; type: in vivo; conditions: single oral 5 mg/kg; for AUC0-t: 0-168 h
Text: Mouse, rat, dog and human were the species used for the safety evaluations of talarozole. More specifically, the disposition of ^14C-labeled talarozole was examined in mice, rats, dogs and humans after oral administration to provide information regarding the absorption, metabolism and excretion of talarozole.
as §1, with “Metabolite characterization and identification were accomplished by LC/MS (Finnigan MAT LCQ in positive or negative ESI mode) in conjunction with an appropriate radioactive monitor (RAM).” left out

Q: Which “ED50-value for complete suppression (keratinization score=0)” value [1] does the source give for `CCC(CC)[C@H](c1ccc(Nc2nc3ccccc3s2)cc1)n1cncn1` [Talarozole, (R)—N-[4-[2-ethyl-1-(1H-1,2,4-triazole-1-yl)butyl]phenyl]-2-benzothiazolamine] here?
A: 1.0 mg/kg/day

Q: What about the “Feces % Dose as the component” value ([2]; female) of the same compound?
A: 4.60 % Dose

Q: And the “Plasma 0-24 h AUC (% Sample)” value ([2]; female)?
A: 39.17%

Q: And the “Plasma 0-24 h AUC of the radioactive component” value ([2]; female)?
A: 3523.2 ng·h/g

Q: What about the “Urine % Dose as the component” value ([2]; female) of the same compound?
A: 1.90 % Dose

Q: What about the “Feces % Dose as the component” value ([2]; male) of the same compound?
A: 5.34 % Dose

Q: And the “Plasma 0-24 h AUC (% Sample)” value ([2]; male)?
A: 11.05%

Q: And the “Plasma 0-24 h AUC of the radioactive component” value ([2]; male)?
A: 778.38 ng·h/g

Q: And the “Urine % Dose as the component” value ([2]; male)?
A: 0.10 % Dose

Q: What about the “Plasma 0-24 h AUC, total radioactivity” value ([2]; female) of the same compound?
A: 8995.6 ng*hr/g F

Q: And the “Plasma 0-24 h AUC, total radioactivity” value ([2]; male)?
A: 7045.6 ng·h/g/M

Q: What about the “AUC0-∞” value ([3]; female) of the same compound?
A: 21902 hr-ng equiv/g

Q: And the AUC0-t ([3]; female)?
A: 21388 hr-ng equiv/g

Q: And the “AUC0-∞” value ([3]; male)?
A: 19970 hr-ng equiv/g

Q: And the AUC0-t ([3]; male)?
A: 19555 hr-ng equiv/g
